A value given as a limit tells only on which side of the number the result lay.

S1P1/EDG1, sequence (P21453 whole entry): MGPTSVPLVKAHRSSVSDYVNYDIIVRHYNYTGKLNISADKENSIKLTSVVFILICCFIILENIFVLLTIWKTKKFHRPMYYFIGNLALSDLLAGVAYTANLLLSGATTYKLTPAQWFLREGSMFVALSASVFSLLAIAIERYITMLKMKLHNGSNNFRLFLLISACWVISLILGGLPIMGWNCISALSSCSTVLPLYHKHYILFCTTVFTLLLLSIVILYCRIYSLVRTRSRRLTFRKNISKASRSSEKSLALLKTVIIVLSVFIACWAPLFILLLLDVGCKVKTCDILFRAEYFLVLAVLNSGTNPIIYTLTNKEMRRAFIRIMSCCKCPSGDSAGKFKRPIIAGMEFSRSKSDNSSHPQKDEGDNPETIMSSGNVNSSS

This assay addresses S1P1/EDG1 (Homo sapiens, UniProt P21453). Description: S1P1 CRE-bla CHOK1 reporter assay, inhibition of Forskolin induced cAMP. Type of assay: cell-based. The note with it: agonist activity range, S1P1 CRE-bla CHOK1, 2 μM Forskolin; read-out: S1P1 ACTIVITY
Put shortly: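 Read-out is a FRET β-lactamase substrate (2 h, room temperature) after 4 h, 37 °C compound treatment under 2 μM Forskolin in stable S1P1-transfected CRE-bla CHO-K1 cells. Ten-point curves; non-linear regression gives EC50 for inhibition of Forskolin-stimulated cAMP.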
Background: A reporter such as luciferase makes a cellular process visible.
With `Cc1c[nH]c(CN[C@H]2CCc3c(-c4noc(-c5ccc(OC(C)C)c(C#N)c5)n4)cccc32)n1` [Compound 159], the EC50 was 0.5 to 5 nM.

Turning to `CC(C)Oc1ccc(-c2nc(-c3cccc4c3CC[C@@H]4NCc3nc4ccccc4[nH]3)no2)cc1C#N` [Compound 160], the EC50 is 0.5 to 5 nM.

`CC(C)Oc1ccc(-c2nc(-c3cccc4c3CC[C@@H]4NCc3cncs3)no2)cc1C#N` [Compound 161]: the EC50 lay within 0.05 to 0.5 nM.

In the case of `Cc1cc(CN[C@H]2CCc3c(-c4noc(-c5ccc(OC(C)C)c(C#N)c5)n4)cccc32)[nH]n1` [Compound 162], the EC50 is 0.5 to 5 nM.

For `CCOCCS(=O)(=O)N[C@@H]1CCc2c(-c3noc(-c4ccc(OC(C)C)c(C#N)c4)n3)cccc21` [Compound 165], the EC50 fell in the range of 0.05 to 0.5 nM.

With `CC(C)Oc1ccc(-c2nc(-c3cccc4c3CC[C@H]4NS(=O)(=O)C3CC3)no2)cc1C#N` [Compound 166], the EC50 fell in the range of 0.05 to 0.5 nM.

Consider `CC(C)Oc1ccc(-c2nc(-c3cccc4c3CC[C@@H]4NS(=O)(=O)C3CC3)no2)cc1C#N` [Compound 167], for which the EC50 was in the range of 0.05 to 0.5 nM.

For `CC(C)Oc1ccc(-c2nc(-c3cccc4c3CC[C@@H]4NS(=O)(=O)CCC3CCC3)no2)cc1C#N` [Compound 168], the EC50 is 0.05 to 0.5 nM.

`CC(C)Oc1ccc(-c2nc(-c3cccc4c3CC[C@@H]4NS(=O)(=O)CCN3CCC3)no2)cc1C#N` [Compound 169]: the EC50 lay within 0.5 to 5 nM.

As for `CC(C)Oc1ccc(-c2nc(-c3cccc4c3CC[C@H]4NS(=O)(=O)CCN3CCCC3)no2)cc1C#N` [Compound 170], the EC50 was in the range of 0.5 to 5 nM.

`CC(C)Oc1ccc(-c2nc(-c3cccc4c3CC[C@H]4NS(=O)(=O)CCN3CC[C@@H](O)C3)no2)cc1C#N` [Compound 171]: the EC50 was in the range of 0.05 to 0.5 nM.

Regarding `CC(C)Oc1ccc(-c2nc(-c3cccc4c3CC[C@H]4NS(=O)(=O)CCN3CC[C@H](O)C3)no2)cc1C#N` [Compound 172], the EC50 fell in the range of 0.5 to 5 nM.

On to `CC(C)Oc1ccc(-c2nc(-c3cccc4c3CC[C@@H]4NS(=O)(=O)CCN3CC[C@@H](O)C3)no2)cc1C#N` [Compound 173], for which the EC50 was 0.5 to 5 nM.

Take `CC(C)Oc1ccc(-c2nc(-c3cccc4c3CC[C@@H]4NS(=O)(=O)CCN3CC[C@H](O)C3)no2)cc1C#N` [Compound 174]: the EC50 was 0.5 to 5 nM.

Consider `CC(C)Oc1ccc(-c2nc(-c3cccc4c3CC[C@H]4NS(=O)(=O)CCN3CCCCC3)no2)cc1C#N` [Compound 175], for which the EC50 lay in the range of 0.5 to 5 nM.

Consider `CC(C)Oc1ccc(-c2nc(-c3cccc4c3CC[C@H]4NS(=O)(=O)CCN3CCOCC3)no2)cc1C#N` [Compound 176], for which the EC50 is 0.5 to 5 nM.

In the case of `CC(C)Oc1ccc(-c2nc(-c3cccc4c3CC[C@@H]4NS(=O)(=O)CCN3CCOCC3)no2)cc1C#N` [Compound 177], the EC50 lay in the range of 0.5 to 5 nM.

On to `COC(=O)CCS(=O)(=O)N[C@H]1CCc2c(-c3noc(-c4ccc(OC(C)C)c(C#N)c4)n3)cccc21` [Compound 182], for which the EC50 lay in the range of 0.05 to 0.5 nM.

For the compound `COC(=O)C(C)(C)CS(=O)(=O)N[C@H]1CCc2c(-c3noc(-c4ccc(OC(C)C)c(C#N)c4)n3)cccc21` [Compound 183], the EC50 lay within 0.5 to 5 nM.

On to `CC(C)Oc1ccc(-c2nc(-c3cccc4c3CC[C@H]4NS(=O)(=O)CC(=O)O)no2)cc1C#N` [Compound 184, (R)-2 (N (4-(5-(3 cyano-4-isopropoxyphenyl)-1,2,4-oxadiazol-3-yl)-2,3-dihydro-1H-inden-1-yl)sulfamoyl)acetic acid], for which the EC50 was less than 0.05 nM.

For `CC(C)Oc1ccc(-c2nc(-c3cccc4c3CC[C@@H]4NS(=O)(=O)CCC(=O)O)no2)cc1C#N` [Compound 185], the EC50 is less than 0.05 nM.

`CC(C)Oc1ccc(-c2nc(-c3cccc4c3CC[C@H]4NS(=O)(=O)CCCO)no2)cc1C#N` [Compound 188]: the EC50 was less than 0.05 nM.

Consider `CC(C)Oc1ccc(-c2nc(-c3cccc4c3CC[C@@H]4NS(=O)(=O)CC(=O)N3CC(O)C3)no2)cc1C#N` [Compound 189], for which the EC50 is 0.05 to 0.5 nM.

With `CC(C)Oc1ccc(-c2nc(-c3cccc4c3CC[C@H]4NS(=O)(=O)CC(=O)N3CC(O)C3)no2)cc1C#N` [Compound 190], the EC50 was less than 0.05 nM.

Regarding `CC(C)Oc1ccc(-c2nc(-c3cccc4c3CC[C@@H]4NS(=O)(=O)CC(=O)N3CCOCC3)no2)cc1C#N` [Compound 191], the EC50 was 0.05 to 0.5 nM.

`CC(C)Oc1ccc(-c2nc(-c3cccc4c3CC[C@H]4NS(=O)(=O)CC(=O)N3CCOCC3)no2)cc1C#N` [Compound 192]: the EC50 was less than 0.05 nM.

Take `CC(C)Oc1ccc(-c2nc(-c3cccc4c3CC[C@@H]4NS(=O)(=O)CC(=O)N3CCC(O)CC3)no2)cc1C#N` [Compound 193]: the EC50 fell in the range of 0.05 to 0.5 nM.

Take `CC(C)Oc1ccc(-c2nc(-c3cccc4c3CC[C@H]4NS(=O)(=O)CC(=O)N(C)C)no2)cc1C#N` [Compound 194, (R)-2-(N-(4-(5-(3-cyano-4-isopropoxyphenyl)-1,2,4-oxadiazol-3-yl)-2,3-dihydro-1H-inden-1-yl)sulfamoyl)-N,N-dimethylacetamide]: the EC50 was less than 0.05 nM.

With `CC(C)Oc1ccc(-c2nc(-c3cccc4c3CC[C@@H]4NS(=O)(=O)CC(=O)N(C)C)no2)cc1C#N` [Compound 195, (S)-2 (N (4-(5-(3 cyano-4-isopropoxyphenyl)-1,2,4-oxadiazol-3-yl)-2,3-dihydro-1H-inden-1-yl)sulfamoyl)-N,N-dimethylacetamide], the EC50 is 0.05 to 0.5 nM.

As to `CC(C)Oc1ccc(-c2nc(-c3cccc4c3CC[C@@H]4NS(=O)(=O)CC(N)=O)no2)cc1C#N` [Compound 196], the EC50 is less than 0.05 nM.

With `CC(C)Oc1ccc(-c2nc(-c3cccc4c3CC[C@H]4NS(=O)(=O)CC(N)=O)no2)cc1C#N` [Compound 197], the EC50 was less than 0.05 nM.

As for `CNC(=O)CS(=O)(=O)N[C@H]1CCc2c(-c3noc(-c4ccc(OC(C)C)c(C#N)c4)n3)cccc21` [Compound 198], the EC50 is 0.05 to 0.5 nM.

`CNC(=O)CS(=O)(=O)N[C@@H]1CCc2c(-c3noc(-c4ccc(OC(C)C)c(C#N)c4)n3)cccc21` [Compound 199]: the EC50 is less than 0.05 nM.

Take `CC(C)Oc1ccc(-c2nc(-c3cccc4c3CC[C@@H]4NS(=O)(=O)CC(=O)N3CCC3)no2)cc1C#N` [Compound 200]: the EC50 was less than 0.05 nM.

Turning to `CC(C)Oc1ccc(-c2nc(-c3cccc4c3CC[C@H]4NS(=O)(=O)CC(=O)N3CCC3)no2)cc1C#N` [Compound 201], the EC50 is less than 0.05 nM.

Take `CC(C)Oc1ccc(-c2nc(-c3cccc4c3CC[C@H]4N3CC(C(=O)O)C3)no2)cc1C#N` [Compound 202, (R)-1-(4-(5-(3-cyano-4-isopropoxyphenyl)-1,2,4-oxadiazol-3-yl)-2,3-dihydro-1H-inden-1-yl)azetidine-3-carboxylic acid]: the EC50 was less than 0.05 nM.

`CC(C)Oc1ccc(-c2nc(-c3cccc4c3CC[C@@H]4N3CC(C(=O)O)C3)no2)cc1C#N` [Compound 203]: the EC50 lay in the range of 0.05 to 0.5 nM.

In the case of `CC(C)Oc1ccc(-c2nc(-c3cccc4c3CC[C@H]4N3CC(C(=O)N(C)C)C3)no2)cc1C#N` [Compound 204], the EC50 was 0.05 to 0.5 nM.

With `CC(C)Oc1ccc(-c2nc(-c3cccc4c3CC[C@@H]4N3CC(C(=O)N(C)C)C3)no2)cc1C#N` [Compound 205], the EC50 lay within 0.05 to 0.5 nM.

Regarding `CNC(=O)C1CN([C@H]2CCc3c(-c4noc(-c5ccc(OC(C)C)c(C#N)c5)n4)cccc32)C1` [Compound 206], the EC50 lay in the range of 0.05 to 0.5 nM.

Take `CC(C)Oc1ccc(-c2nc(-c3cccc4c3CC[C@@H]4N3CC(C(=O)N4CCC4)C3)no2)cc1C#N` [Compound 207]: the EC50 was in the range of 0.05 to 0.5 nM.

As to `CC(C)Oc1ccc(-c2nc(-c3cccc4c3CC[C@@H]4N(C)CC(=O)O)no2)cc1C#N` [Compound 208], the EC50 was 0.05 to 0.5 nM.

Consider `CC(C)Oc1ccc(-c2nc(-c3cccc4c3CC[C@@H]4N(C)CCO)no2)cc1C#N` [Compound 209], for which the EC50 was 0.05 to 0.5 nM.

On to `CC(C)Oc1ccc(-c2nc(-c3cccc4c3CC[C@@H]4N(C)C)no2)cc1C#N` [Compound 210], for which the EC50 was in the range of 0.5 to 5 nM.

With `CC(C)Oc1ccc(-c2nc(-c3cccc4c3CC[C@H]4NC(=O)N3CCOCC3)no2)cc1C#N` [Compound 211], the EC50 lay within 0.05 to 0.5 nM.

Regarding `CC(C)Oc1ccc(-c2nc(-c3cccc4c3CC[C@@H]4NC(=O)N3CCOCC3)no2)cc1C#N` [Compound 212], the EC50 was in the range of 0.05 to 0.5 nM.

Regarding `CC(C)Oc1ccc(-c2nc(-c3cccc4c3CC[C@H]4NC(=O)N3CCNCC3)no2)cc1C#N` [Compound 213], the EC50 is 0.5 to 5 nM.

For the compound `CC(C)Oc1ccc(-c2nc(-c3cccc4c3CC[C@@H]4NC(=O)N3CCNCC3)no2)cc1C#N` [Compound 214], the EC50 lay within 0.05 to 0.5 nM.

Take `CC(C)Oc1ccc(-c2nc(-c3cccc4c3CC[C@H]4NC(=O)N3CCC[C@H](O)C3)no2)cc1C#N` [Compound 215]: the EC50 is 0.5 to 5 nM.

As to `CC(C)Oc1ccc(-c2nc(-c3cccc4c3CC[C@@H]4NC(=O)N3CCC[C@H](O)C3)no2)cc1C#N` [Compound 216], the EC50 lay in the range of 0.05 to 0.5 nM.

`CC(C)Oc1ccc(-c2nc(-c3cccc4c3CC[C@H]4NC(=O)N3CCC(CO)CC3)no2)cc1C#N` [Compound 217]: the EC50 was 0.5 to 5 nM.

Regarding `CC(C)Oc1ccc(-c2nc(-c3cccc4c3CC[C@@H]4NC(=O)N3CCC(CO)CC3)no2)cc1C#N` [Compound 218], the EC50 was 0.05 to 0.5 nM.

Consider `CC(C)Oc1ccc(-c2nc(-c3cccc4c3CC[C@H]4NC(=O)N3CCC[C@@H](O)C3)no2)cc1C#N` [Compound 219], for which the EC50 lay within 0.5 to 5 nM.

Take `CC(C)Oc1ccc(-c2nc(-c3cccc4c3CC[C@@H]4NC(=O)N3CCC[C@@H](O)C3)no2)cc1C#N` [Compound 220]: the EC50 lay within 0.05 to 0.5 nM.

In the case of `CC(C)Oc1ccc(-c2nc(-c3cccc4c3CC[C@H]4NC(=O)N3CC[C@@H](N)C3)no2)cc1C#N` [Compound 221], the EC50 lay within 0.05 to 0.5 nM.

Regarding `CC(C)Oc1ccc(-c2nc(-c3cccc4c3CC[C@H]4NC(=O)N3CC[C@H](N)C3)no2)cc1C#N` [Compound 222], the EC50 fell in the range of 0.5 to 5 nM.

For `CC(C)Oc1ccc(-c2nc(-c3cccc4c3CC[C@@H]4NC(=O)N3CC[C@@H](N)C3)no2)cc1C#N` [Compound 223], the EC50 was in the range of 0.5 to 5 nM.

As to `CC(C)Oc1ccc(-c2nc(-c3cccc4c3CC[C@@H]4NC(=O)N3CC[C@H](N)C3)no2)cc1C#N` [Compound 224], the EC50 is 0.5 to 5 nM.

The values above are taken from US9388147B2 (Receptos, Inc., priority 2009, dated 2016).
